Data set [1] can be described thus: Catalytic oxidation of diphenylmethane into benzophenone. The following applies: yields by flash column chromatography and mass calculation. Here is the method: The conversion of diphenylmethane into benzophenone was selected to test the activity of catalyst salquCu 1 and to develop optimized conditions, Based on previous reports with salphCu, three equivalents of H2O2 in CH3CN as solvent with 1% by molar of the catalyst salquCu 1 was heated to reflux temperature for 18 hours. Under these conditions, the isolated yield of benzophenone was only 27%. Six experimental factors were considered to optimizing this reaction: oxidant (FIG. 7), catalyst ratio (FIG. 8), reaction time (FIG. 9), oxidant ratio (FIG. 10), solvent, and types of catalyst (FIG. 11 and Table 10).
First, four oxidants were tested using CH3CN as solvent in each case, with 1% of catalyst 1 at reflux temperature for 18 hours. […] When tert-butylhydroperoxide in water was used as the oxidant, the yield of product, benzophenone, was around 80%. (FIG. 7) The use of tert-butylhydroperoxide in decane allows for a uniform or monophasic organic soluble catalyst system, and thus further improves the optimal yield. […]
The synthesis of the products depicted in Table 11 began with the combination of catalyst 1 (0.02 mmol, 15.2 mg) and 2.0 mmol of starting material (aryl methylene compound) dissolved in 2.0 mL acetonitrile with 1.0 mL tert-butylhydroperoxide decane solution (6.0 mmol). The reaction mixture was allowed to stir for 18 hours at 70° C. and monitored by TLC. […]

The nature of data set [2]: Stability of ligands, imines, intermediates and catalysts (temperature, air, moisture, solvents). In kind it is physicochemical. The following applies: exposure to air.

This is an account of results in patent US8445678B2, “2-quinoxalinol salen compounds and uses thereof” (Auburn University, priority 2008, dated 2013).

Molecules are shown by their SMILES.

For the compound `Nc1cc2ncc(O)nc2cc1N` [Intermediate 1e], the “Yield (%) of benzophenone, optimized conditions with different salquCu catalysts” value in data set [1] is listed as 90%. In addition, the “stability in air / atmospheric conditions” value in data set [2] was “not stable and was found to decompose on exposure to air”.
